Measured values as given in ChEMBL document CHEMBL5370649, “Novel Coumarin Derivatives Inhibit the Quorum Sensing System and Iron Homeostasis as Antibacterial Synergists against Pseudomonas aeruginosa” (J Med Chem, 2023).
Calls of active or inactive are those of the source. The rule behind the calls is not given here.

Legend:
L02 = experiment: Cytotoxicity against human L02 cells assessed as reduction in cell viability upto 50 uM incubated for 24 hrs by MTT assay; format: toxicity, cell-based; conditions: l02, 24 h
[1] = target: T1, Transcriptional regulator MvfR (Pseudomonas aeruginosa PA14) (UniProt A0A072ZLE6); experiment: Inhibition of PqsR-mediated quorum sensing system in Pseudomonas aeruginosa PAO1 assessed as inhibition of pyocyanin production at 1.25 to 20 uM incubated for 24 hrs by absorbance based assay; conditions: dose 1.25-20 µM
T1 sequence (whole entry): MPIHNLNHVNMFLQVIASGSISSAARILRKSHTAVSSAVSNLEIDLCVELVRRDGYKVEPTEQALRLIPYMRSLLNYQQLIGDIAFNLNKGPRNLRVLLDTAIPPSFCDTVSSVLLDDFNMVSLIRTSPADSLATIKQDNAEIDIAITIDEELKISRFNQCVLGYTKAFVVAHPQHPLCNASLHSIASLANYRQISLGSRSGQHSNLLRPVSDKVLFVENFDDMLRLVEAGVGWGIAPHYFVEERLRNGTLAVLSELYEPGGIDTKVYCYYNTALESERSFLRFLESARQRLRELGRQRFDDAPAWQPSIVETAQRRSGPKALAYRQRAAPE

[2] = Toxicity in Balb/c mouse wound infection model infected with Pseudomonas aeruginosa PAO1 assessed as body weight change at 50 uM,TOP for 3 days in Ciprofloxacin; conditions: in vivo, topical_or_ocular, 72 h, time 3 day
Pseudomonas aeruginosa [3] = experiment: Downregulation of trpG expression in Pseudomonas aeruginosa PAO1 at 20 uM incubated for 24 hrs by RNA sequencing analysis; format: functional
Pseudomonas aeruginosa [4] = experiment: Antibiofilm activity against Pseudomonas aeruginosa PAO1 in ABTGC medium assessed as inhibition of biofilm formation incubated for 24 hrs by crystal violet staining based absorbance assay; format: functional, organism-based; conditions: PAO1, 24 h
[5] = Toxicity in Balb/c mouse wound infection model infected with Pseudomonas aeruginosa PAO1 assessed as morphological changes in spleen at 50 uM,TOP for 3 days in Tobramycin by H and E staining based analysis; format: tissue-based; conditions: in vivo, topical_or_ocular, 72 h, time 3 day
Pseudomonas aeruginosa [6] = experiment: Synergistic antibacterial activity against Pseudomonas aeruginosa PAO1 infected in Balb/c mouse wound infection model assessed as reduction in bacterial infection at 50 uM,TOP QD for 3 days in presence of Ciprofloxacin by CFU assay; format: functional; set-up: scale not given: the % may be the effect or the level left; conditions: time 3 day
Pseudomonas aeruginosa [7] = experiment: Upregulation of pvdJ expression in Pseudomonas aeruginosa PAO1 at 20 uM incubated for 24 hrs by RNA sequencing analysis; format: functional
Pseudomonas aeruginosa [8] = experiment: Synergistic antibacterial activity against Pseudomonas aeruginosa PAO1 infected in Balb/c mouse wound infection model assessed as reduction in bacterial survival rate at wounded area at 50 uM,TOP QD for 3 days in presence of Ciprofloxacin by CFU assay; format: functional; conditions: time 3 day
[9] = Toxicity in Balb/c mouse wound infection model infected with Pseudomonas aeruginosa PAO1 assessed as morphological changes in liver at 50 uM,TOP for 3 days in Tobramycin by H and E staining based analysis; format: tissue-based; conditions: in vivo, topical_or_ocular, 72 h, time 3 day
Pseudomonas aeruginosa [10] = experiment: Antibacterial activity against Pseudomonas aeruginosa PAO1 in ABTGC medium assessed as bacterial growth inhibition at 1.25 to 20 uM incubated for 16 hrs; format: functional, organism-based; conditions: dose 1.25-20 µM
Pseudomonas aeruginosa [11] = experiment: Downregulation of pilI expression in Pseudomonas aeruginosa PAO1 at 20 uM incubated for 24 hrs by RNA sequencing analysis; format: functional
Pseudomonas aeruginosa [12] = experiment: Antibiofilm activity against Pseudomonas aeruginosa PAO1 pvds-defective mutant assessed as inhibition of biofilm formation at 1.25 to 20 uM incubated for 24 hrs by crystal violet staining based absorbance assay; format: functional, organism-based; conditions: dose 1.25-20 µM
Pseudomonas aeruginosa [13] = experiment: Synergistic antibacterial activity against Pseudomonas aeruginosa PAO1 infected in Balb/c mouse wound infection model assessed as healing degree of wound at 50 uM,TOP QD for 3 days and measured after 9 days in presence of Tobramycin; format: functional, organism-based; conditions: time 3.0 day
Pseudomonas aeruginosa [14] = experiment: Downregulation of phyllo expression in Pseudomonas aeruginosa PAO1 at 20 uM incubated for 24 hrs by RNA sequencing analysis; format: functional
[15] = target: T2, Transcriptional activator protein LasR (Pseudomonas aeruginosa (strain ATCC 15692 / PAO1 / 1C / PRS 101 / LMG12228)) (UniProt P25084); experiment: Inhibition of LasR-mediated quorum sensing system in Pseudomonas aeruginosa PAO1 assessed as inhibition of elastase production at 1.25 to 20 uM incubated for 24 hrs using BODIPY-FL-labeled DQ elastin conjugate as substrate by fluorometric method; conditions: dose 1.25-20 µM
T2 sequence (whole entry): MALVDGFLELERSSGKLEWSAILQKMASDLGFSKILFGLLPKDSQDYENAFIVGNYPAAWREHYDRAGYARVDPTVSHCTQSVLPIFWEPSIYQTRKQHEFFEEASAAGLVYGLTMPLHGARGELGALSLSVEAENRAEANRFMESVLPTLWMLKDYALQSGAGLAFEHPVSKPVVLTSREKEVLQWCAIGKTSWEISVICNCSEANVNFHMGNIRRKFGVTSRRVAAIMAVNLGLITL

Pseudomonas aeruginosa [16] = experiment: Antibiofilm activity against in Pseudomonas aeruginosa PAO1 assessed as pilus formation at 5 to 40 uM incubated for 16 hrs by SEM analysis; format: functional, organism-based; conditions: dose 5-40 µM
Pseudomonas aeruginosa [17] = experiment: Upregulation of pvdF expression in Pseudomonas aeruginosa PAO1 at 20 uM incubated for 24 hrs by RNA sequencing analysis; format: functional
Pseudomonas aeruginosa [18] = experiment: Inhibition of iron homeostasis in Pseudomonas aeruginosa PAO1 in ABTGC medium assessed as increase in iron-free pyoverdine production at 1.25 to 20 uM in presence of FeCl3 by fluorescence based microplate reader analysis; format: functional, organism-based; conditions: dose 1.25-20 µM
[19] = Toxicity in Balb/c mouse wound infection model infected with Pseudomonas aeruginosa PAO1 assessed as morphological changes in kidney at 50 uM,TOP for 3 days in Tobramycin by H and E staining based analysis; format: tissue-based; conditions: in vivo, topical_or_ocular, 72 h, time 3 day
[20] = Toxicity in Balb/c mouse wound infection model infected with Pseudomonas aeruginosa PAO1 assessed as morphological changes in lung at 50 uM,TOP for 3 days in Ciprofloxacin by H and E staining based analysis; format: tissue-based; conditions: in vivo, topical_or_ocular, 72 h, time 3 day
[21] = Inhibition of quorum sensing system in Pseudomonas aeruginosa PAO1-pqsA-gfp assessed as inhibition of GFP fluorescence expression at 1.25 to 20 uM and measured for 12 hrs at 15 mins interval by fluorescence assay; conditions: dose 1.25-20 µM
Pseudomonas aeruginosa [22] = experiment: Downregulation of pilD expression in Pseudomonas aeruginosa PAO1 at 20 uM incubated for 24 hrs by RNA sequencing analysis; format: functional

## Cc1ccc2oc(=O)cc(OCCCCCCC(=O)NO)c2c1
L02
  Activity: Non-Toxic
[1]
  inhibition: Dose-Dependent Effect
[2]
  Activity: Non-Toxic
Pseudomonas aeruginosa [3]
  Activity: Active
Pseudomonas aeruginosa [4]
  IC50: 3.66 µM
[5]
  Activity: Non-Toxic
Pseudomonas aeruginosa [6]
  Activity: 100%
Pseudomonas aeruginosa [7]
  Activity: Active
Pseudomonas aeruginosa [8]
  Activity: 3.19%
[9]
  Activity: Non-Toxic
Pseudomonas aeruginosa [10]
  Activity: inactive
Pseudomonas aeruginosa [11]
  Activity: Active
Pseudomonas aeruginosa [12]
  inhibition: inactive
Pseudomonas aeruginosa [13]
  Activity: Active
Pseudomonas aeruginosa [14]
  Activity: Active
[15]
  inhibition: Dose-Dependent Effect
Pseudomonas aeruginosa [16]
  Activity: Dose-Dependent Effect
Pseudomonas aeruginosa [17]
  Activity: Active
Pseudomonas aeruginosa [18]
  inhibition: Active
[19]
  Activity: Non-Toxic
[20]
  Activity: Non-Toxic
[21]
  inhibition: Dose-Dependent Effect
Pseudomonas aeruginosa [22]
  Activity: Active
